Structures are written as SMILES. A value given as a limit tells only on which side of the number the result lay.

For one assay, the system named is HeLa cells. The experiment in a line: Proliferation assay, crystal violet staining. Particulars: Homo sapiens, 96 h, read-out: Inhibition of HeLa cell proliferation.
In the case of `COP(=O)(OC)c1ccc(-c2cc(N3CCOCC3)nc3c(-c4ccn[nH]4)nccc23)cc1` [Example 9, dimethyl {4-[2-(morpholin-4-yl)-8-(1H-pyrazol-5-yl)-1,7-naphthyridin-4-yl]phenyl}phosphonate], the IC50 was determined as 1010 nM.

The assay is the same for the next values; noted with them: Homo sapiens, 96 h, read-out: Inhibition of HeLa cell proliferation, HeLa cells, 4 days incubation.
As to `C[C@@H]1CN[C@@H](C)CN1c1cc(N2CCOCC2)nc2c(-c3ccn[nH]3)nccc12` (relative stereo) [Example 178, 4-[(trans)-2,5-dimethylpiperazin-1-yl]-2-(morpholin-4-yl)-8-(1H-pyrazol-5-yl)-1,7-naphthyridine], the IC50 is > 3000 nM.
Same read-out and setting: the value for `CS(=O)(=O)c1ccc(-c2cc(N3CCOCC3)nc3c(-c4ccn[nH]4)nccc23)cn1` [Example 3, 4-[6-(methylsulfonyl)pyridin-3-yl]-2-(morpholin-4-yl)-8-(1H-pyrazol-5-yl)-1,7-naphthyridine] was 2770 nM; that for `Cc1cc(S(C)(=O)=O)ncc1-c1cc(N2CCOCC2)nc2c(-c3ccn[nH]3)nccc12` [Example 6, 4-[4-methyl-6-(methylsulfonyl)pyridin-3-yl]-2-(morpholin-4-yl)-8-(1H-pyrazol-5-yl)-1,7-naphthyridine] was 1490 nM; that for `CN1CC=C(c2cc(N3CCOCC3)nc3c(-c4ccn[nH]4)nccc23)CC1` [Example 14, 4-(1-methyl-1,2,3,6-tetrahydropyridin-4-yl)-2-(morpholin-4-yl)-8-(1H-pyrazol-5-yl)-1,7-naphthyridine] was 1990 nM.
Same read-out and setting: for `C[C@@H]1COCCN1c1cc(-c2ccccc2)c2ccnc(-c3cc[nH]n3)c2n1` [Example 27, 2-((R)-3-methylmorpholin-4-yl)-4-phenyl-8-(2H-pyrazol-3-yl)-[1,7]naphthyridine] the value was 355 nM; for `C[C@@H]1COCCN1c1cc(-c2cccc(S(C)(=O)=O)c2)c2ccnc(-c3cc[nH]n3)c2n1` [Example 28, 4-(3-methanesulphonylphenyl)-2-((R)-3-methylmorpholin-4-yl)-8-(2H-pyrazol-3-yl)-[1,7]naphthyridine], 316 nM.
Still for that read-out and setting: the value for `CS(=O)(=O)Cc1cc(N2CCOCC2)nc2c(-c3ccn[nH]3)nccc12` [Example 37, 4-methanesulphonylmethyl-2-morpholin-4-yl-8-(2H-pyrazol-3-yl)-[1,7]naphthyridine] was 5080 nM.
For the molecule `CCOc1cc(N2CCOCC2)nc2c(-c3cc[nH]n3)nccc12` [Example 43, 4-ethoxy-2-(morpholin-4-yl)-8-(1H-pyrazol-3-yl)-[1,7]naphthyridine], the IC50 is 3880 nM.
As for `c1ccc(COc2cc(N3CCOCC3)nc3c(-c4cc[nH]n4)nccc23)cc1` [Example 50, 4-benzyloxy-2-(morpholin-4-yl)-8-(1H-pyrazol-3-yl)-[1,7]naphthyridine], the IC50 is > 10000 nM.
On the same count and under the same terms, the value for `COc1cc(N2CCOC[C@H]2C)nc2c(-c3cc[nH]n3)nccc12` [Example 53, 4-methoxy-2-((R)-3-methylmorpholin-4-yl)-8-(1H-pyrazol-3-yl)-[1,7]naphthyridine] was 1410 nM; that for `CCn1nccc1-c1cc(N2CCOC[C@H]2C)nc2c(-c3ccn[nH]3)nccc12` [Example 69, 4-(1-ethyl-1H-pyrazol-5-yl)-2-[(3R)-3-methylmorpholin-4-yl]-8-(1H-pyrazol-5-yl)-1,7-naphthyridine] was 191 nM; that for `C[C@@H]1COCCN1c1cc(-c2cncn2C)c2ccnc(-c3ccn[nH]3)c2n1` [Example 70, 4-(1-methyl-1H-imidazol-5-yl)-2-[(3R)-3-methylmorpholin-4-yl]-8-(1H-pyrazol-5-yl)-1,7-naphthyridine] was 201 nM.
On the same count and under the same terms, the value for `C[C@@H]1COCCN1c1cc(-c2ccccc2N)c2ccnc(-c3ccn[nH]3)c2n1` [Example 71, 2-{2-[(3R)-3-methylmorpholin-4-yl]-8-(1H-pyrazol-5-yl)-1,7-naphthyridin-4-yl]aniline] was 167 nM; that for `C[C@@H]1COCCN1c1cc(-c2cccc(F)c2F)c2ccnc(-c3ccn[nH]3)c2n1` [Example 72, 4-(2,3-difluorophenyl)-2-[(3R)-3-methylmorpholin-4-yl]-8-(1H-pyrazol-5-yl)-1,7-naphthyridine] was 200 nM.
The same measure, in the same setting: the value for `C[C@@H]1COCCN1c1cc(-c2cc(F)ccc2N)c2ccnc(-c3ccn[nH]3)c2n1` [Example 75, 4-fluoro-2-[2-[(3R)-3-methylmorpholin-4-yl]-8-(1H-pyrazol-5-yl)-1,7-naphthyridin-4-yl]aniline] was 271 nM; that for `C[C@@H]1COCCN1c1cc(-c2cncn2Cc2ccccc2)c2ccnc(-c3ccn[nH]3)c2n1` [Example 76, 4-(1-benzyl-1H-imidazol-5-yl)-2-[(3R)-3-methylmorpholin-4-yl]-8-(1H-pyrazol-5-yl)-1,7-naphthyridine] was 968 nM; that for `C[C@@H]1COCCN1c1cc(-c2ccccc2F)c2ccnc(-c3ccn[nH]3)c2n1` [Example 77, 4-(2-fluorophenyl)-2-[(3R)-3-methylmorpholin-4-yl]-8-(1H-pyrazol-5-yl)-1,7-naphthyridine] was 254 nM.
For the molecule `Cc1ncc(-c2cc(N3CCOC[C@H]3C)nc3c(-c4ccn[nH]4)nccc23)s1` [Example 78, 2-[(3R)-3-methylmorpholin-4-yl]-4-(2-methyl-1,3-thiazol-5-yl)-8-(1H-pyrazol-5-yl)-1,7-naphthyridine], the IC50 is 655 nM.
Regarding `C[C@@H]1COCCN1c1cc(-c2ccnn2C2CC2)c2ccnc(-c3ccn[nH]3)c2n1` [Example 80, 4-(1-cyclopropyl-1H-pyrazol-5-yl)-2-[(3R)-3-methylmorpholin-4-yl]-8-(1H-pyrazol-5-yl)-1,7-naphthyridine], the IC50 is 187 nM.
On the same count and under the same terms, the value for `C[C@@H]1COCCN1c1cc(-c2ccc(N3CCNCC3)cc2F)c2ccnc(-c3ccn[nH]3)c2n1` [Example 81, 4-[2-fluoro-4-(piperazin-1-yl)phenyl]-2-[(3R)-3-methylmorpholin-4-yl]-8-(1H-pyrazol-5-yl)-1,7-naphthyridine] was 245 nM; that for `C[C@@H]1COCCN1c1cc(N2CCN(S(C)(=O)=O)CC2)c2ccnc(-c3ccn[nH]3)c2n1` [Example 82, 2-[(3R)-3-methylmorpholin-4-yl]-4-[4-(methylsulfonyl)piperazin-1-yl]-8-(1H-pyrazol-5-yl)-1,7-naphthyridine] was 529 nM.
Same read-out and setting: for `C[C@@H]1COCCN1c1cc(N(C)CC(C)(C)C)c2ccnc(-c3ccn[nH]3)c2n1` [Example 83, N-(2,2-dimethylpropyl)-N-methyl-2-[(3R)-3-methylmorpholin-4-yl]-8-(1H-pyrazol-5-yl)-1,7-naphthyridin-4-amine] the value was 331 nM.
On the same count and under the same terms, for `C[C@@H]1COCCN1c1cc(N2CCC(CO)CC2)c2ccnc(-c3ccn[nH]3)c2n1` [Example 84, (1-{2-[(3R)-3-methylmorpholin-4-yl]-8-(1H-pyrazol-5-yl)-1,7-naphthyridin-4-yl}piperidin-4-yl)methanol] the value was 130 nM; for `C[C@@H]1COCCN1c1cc(N(C)C2CC2)c2ccnc(-c3ccn[nH]3)c2n1` [Example 85, N-cyclopropyl-N-methyl-2-[(3R)-3-methylmorpholin-4-yl]-8-(1H-pyrazol-5-yl)-1,7-naphthyridin-4-amine], 438 nM; for `C[C@@H]1COCCN1c1cc(N(C)c2ccc(F)cc2)c2ccnc(-c3ccn[nH]3)c2n1` [Example 87, N-(4-fluorophenyl)-N-methyl-2-[(3R)-3-methylmorpholin-4-yl]-8-(1H-pyrazol-5-yl)-1,7-naphthyridin-4-amine], 543 nM.
Turning to `C[C@@H]1COCCN1c1cc(-c2cccnc2F)c2ccnc(-c3ccn[nH]3)c2n1` [Example 89, 4-(2-fluoropyridin-3-yl)-2-[(3R)-3-methylmorpholin-4-yl]-8-(1H-pyrazol-5-yl)-1,7-naphthyridine], the IC50 came out at 142 nM.
For the molecule `Cc1ccnc(F)c1-c1cc(N2CCOC[C@H]2C)nc2c(-c3ccn[nH]3)nccc12` [Example 90, 4-(2-fluoro-4-methylpyridin-3-yl)-2-[(3R)-3-methylmorpholin-4-yl]-8-(1H-pyrazol-5-yl)-1,7-naphthyridine], the IC50 is 92 nM.
With `C[C@@H]1COCCN1c1cc(-c2cccn2C)c2ccnc(-c3ccn[nH]3)c2n1` [Example 91, 2-[(3R)-3-methylmorpholin-4-yl]-4-(1-methyl-1H-pyrrol-2-yl)-8-(1H-pyrazol-5-yl)-1,7-naphthyridine], the IC50 came out at 108 nM.
On the same count and under the same terms, for `Cc1cc(-c2cc(N3CCOC[C@H]3C)nc3c(-c4ccn[nH]4)nccc23)cnc1F` [Example 92, 4-(6-fluoro-5-methylpyridin-3-yl)-2-[(3R)-3-methylmorpholin-4-yl]-8-(1H-pyrazol-5-yl)-1,7-naphthyridine] the value was 117 nM; for `Cc1ccc(-c2cc(N3CCOC[C@H]3C)nc3c(-c4ccn[nH]4)nccc23)c(F)n1` [Example 93, 4-(2-fluoro-6-methylpyridin-3-yl)-2-[(3R)-3-methylmorpholin-4-yl]-8-(1H-pyrazol-5-yl)-1,7-naphthyridine], 179 nM.
With `C[C@@H]1COCCN1c1cc(-c2ccc(F)nc2)c2ccnc(-c3ccn[nH]3)c2n1` [Example 94, 4-(6-fluoropyridin-3-yl)-2-[(3R)-3-methylmorpholin-4-yl]-8-(1H-pyrazol-5-yl)-1,7-naphthyridine], the IC50 turned out to be 268 nM.
On the same count and under the same terms, for `COc1ccc(-c2cc(N3CCOC[C@H]3C)nc3c(-c4ccn[nH]4)nccc23)cn1` [Example 95, 4-(6-methoxypyridin-3-yl)-2-[(3R)-3-methylmorpholin-4-yl]-8-(1H-pyrazol-5-yl)-1,7-naphthyridine] the value was 211 nM; for `COc1ncc(-c2cc(N3CCOC[C@H]3C)nc3c(-c4ccn[nH]4)nccc23)cc1C` [Example 96, 4-(6-methoxy-5-methylpyridin-3-yl)-2-[(3R)-3-methylmorpholin-4-yl]-8-(1H-pyrazol-5-yl)-1,7-naphthyridine], 169 nM.
Consider `Cc1nc(F)ccc1-c1cc(N2CCOC[C@H]2C)nc2c(-c3ccn[nH]3)nccc12` [Example 97, 4-(6-fluoro-2-methylpyridin-3-yl)-2-[(3R)-3-methylmorpholin-4-yl]-8-(1H-pyrazol-5-yl)-1,7-naphthyridine], for which the IC50 was 252 nM.

The values above are taken from US10772893B2, “2-(morpholin-4-yl)-1,7-naphthyridines” (BAYER PHARMA AKTIENGESELLSCHAFT, priority 2014, dated 2020).
